Reference: US20130079305A1, “3-SUBSTITUTED VINYLBORONATES AND USES THEREOF” (Yissum Research Development Company of the Hebrew …, priority 2010, published 2013)

What was measured:
[1] = test system: HT-29 (colon cancer) cells; assay: MTT assay, HT-29 (colon cancer) cells; format: cell-based; conditions: Homo sapiens, HT-29 cells, 72 h incubation
Protocol: (§1) ARH-77 (myeloma) and HT-29 (colon cancer) cells were grown and counted, and were thereafter plated in 96-wells plates to get 0.1×10^6 cells/well. The plates were left in the incubator overnight for cells attachment and the tested compounds were then added to the cells. The tested concentrations of the compounds were 1, 2, 5, 10, 20, 50 and 100 μM. The compounds were incubated with the cells for 24 hours, 48 hours or for 72 hours, and were thereafter subjected to the MTT assay.

ARH-77 (myeloma) cells = assay: MTT assay, ARH-77 (myeloma) cells; format: cell-based; conditions: ARH-77 cells; for IC50: Homo sapiens, 72 h incubation
Protocol: as §1

Compound | IC50 [1] [µM] | IC50 (ARH-77 (myeloma) cells) [µM] | IC50, ARH-77, 72 h incubation (ARH-77 (myeloma) cells)
CCC/C(=C\B1OC(C)(C)C(C)(C)O1)C1(O)CCCc2ccccc21 (centres unmarked) [Compound E3] | 85 | 65 | 
CCC/C(=C\B1OC(C)(C)C(C)(C)O1)C(O)c1ccccc1 (centres unmarked) [Compound E4] | > 100 |  | not active
CCC/C(=C\B1OC(C)(C)C(C)(C)O1)C(O)(c1ccccc1)C1CC1 (centres unmarked) [Compound E2] | 85 | 54 | 
CCCCCCC(C)(O)/C(=C/B1OC(C)(C)C(C)(C)O1)CCC (centres unmarked) [Compound E5] | 55 | 30 | 

The next lines start with the values.

IC50 [1] [µM] | IC50 (ARH-77 (myeloma) cells) [µM] | IC50, ARH-77, 72 h incubation (ARH-77 (myeloma) cells) | Compound
80 | 54 |  | CCCCC(C)(O)/C(=C/B1OC(C)(C)C(C)(C)O1)CCC (centres unmarked) [Compound E6]
15 | 6 |  | CCCCCCCC/C(=C\B1OC(C)(C)C(C)(C)O1)C(O)(c1ccccc1)C1CC1 (centres unmarked) [Compound E7]
> 100 | 78 |  | CCCCCCCC/C(=C\B1OC(C)(C)C(C)(C)O1)C(C)(O)CCCCCC (centres unmarked) [Compound E8]
